Data taken from article PMC10112521, “High-throughput AR dimerization assay identifies androgen disrupting chemicals and metabolites” (Frontiers in Toxicology, 2023).
Read-outs that look alike come from different tables or passages of the source.

What was measured:
[1] = test system: AR2 cells (HepG2-AR2); test: Alamar Blue (resazurin) post hoc cell viability / cytotoxicity assay in AR2 cells; settings: spid Viability, sheet antagonist_fits; for hill_tp (Hill model top): 0 where win_model is Constant
Description: For antagonist mode and cytotoxicity data, well-level normalized response (resp) was calculated as: resp=100 * RLU−bval/pval−bval where pval is the median RLU value of the MEC positive control wells (minimum four wells).

[2] = biological target: T1, human AR (Homo sapiens, UniProt P10275); test: AR2 assay, antagonist mode: disruption of R1881 (10 nM)-induced AR homodimerization in HepG2-AR2 cells; assay type: cell-based
T1 sequence (P10275 1-920) 1: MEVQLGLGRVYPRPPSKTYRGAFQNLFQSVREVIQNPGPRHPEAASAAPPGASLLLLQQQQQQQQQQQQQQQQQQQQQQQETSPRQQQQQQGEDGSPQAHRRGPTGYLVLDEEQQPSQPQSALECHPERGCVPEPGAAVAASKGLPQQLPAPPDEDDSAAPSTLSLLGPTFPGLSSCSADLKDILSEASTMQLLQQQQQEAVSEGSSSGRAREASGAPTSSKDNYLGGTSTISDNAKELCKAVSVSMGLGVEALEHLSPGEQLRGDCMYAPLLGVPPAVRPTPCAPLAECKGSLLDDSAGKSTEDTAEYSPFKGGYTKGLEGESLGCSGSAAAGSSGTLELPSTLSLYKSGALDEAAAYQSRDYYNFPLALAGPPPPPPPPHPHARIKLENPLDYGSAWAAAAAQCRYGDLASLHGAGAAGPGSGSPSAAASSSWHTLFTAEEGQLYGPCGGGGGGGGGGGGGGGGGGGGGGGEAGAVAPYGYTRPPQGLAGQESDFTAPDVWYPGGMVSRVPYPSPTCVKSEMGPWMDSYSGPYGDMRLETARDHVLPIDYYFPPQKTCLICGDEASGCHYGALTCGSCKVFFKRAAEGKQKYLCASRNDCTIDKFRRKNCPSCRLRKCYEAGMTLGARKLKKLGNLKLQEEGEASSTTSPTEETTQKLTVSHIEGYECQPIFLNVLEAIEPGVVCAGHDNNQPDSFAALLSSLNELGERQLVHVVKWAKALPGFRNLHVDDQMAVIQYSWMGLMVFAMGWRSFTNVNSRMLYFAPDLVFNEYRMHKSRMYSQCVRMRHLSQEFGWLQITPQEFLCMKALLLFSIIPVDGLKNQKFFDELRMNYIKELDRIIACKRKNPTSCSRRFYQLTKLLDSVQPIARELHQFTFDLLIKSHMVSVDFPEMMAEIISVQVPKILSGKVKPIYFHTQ
T1 sequence (P10275 1-920) 2: T1 sequence (P10275 1-920) 1

[3] = biological target: T1, human AR; test: cell-based; design: species or system AR2 cells (HepG2-AR2); NanoLuc complementation AR homodimerization, agonist mode, luminescence gain, AC50 by Hill fit; settings: hill_ga, agonist mode, 18 h, no CYP expressed
[4] = biological target: T1, human AR; test: AR2 assay, agonist mode: ligand-dependent AR homodimerization (NanoBiT luciferase complementation) in stable HepG2-AR2 cells; assay type: cell-based; settings: for AR2 agonist: activity call, agonist mode; for hill_tp: Hill model top (efficacy); for hill_tp / hill_gw: 0 given where win_model is Constant; for win_model: winning concentration-response model (Constant, Hill, Gain-Loss); for hill_gw: Hill model gain slope (Hill coefficient);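 as to hill tp: Log2 fold change of luminescence over DMSO vehicle wells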;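 as to max med: Log2 fold change of luminescence over DMSO vehicle wells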
[5] = test system: AR; design: method as in Kleinstreuer et al., 2017; settings: AR agonist reference class ref Kleinstreuer et al., 2017; cited from earlier work
[6] = test system: full-length human AR and the receptor interacting domain (RID) of SRC1; design: method as in U.S. EPA, 2002b; settings: activity call, single protocol detects agonists and antagonists, invitroDBv3.4 ref U.S. EPA, 2002b, cited from earlier work
[7] = test system: human AR (LBD and AF2 domains) and the RID of human SRC2; design: method as in U.S. EPA, 2002b; settings: activity call, agonist mode, 2 h; invitroDBv3.4 ref U.S. EPA, 2002b; cited from earlier work
[8] = biological target: T1, human AR; test: cell-based; design: species or system AR2 cells (HepG2-AR2); NanoLuc complementation AR homodimerization, antagonist mode, loss of agonist-induced luminescence, AC50 by Hill fit; settings: antagonist mode, 10 nM agonist stimulus, 18 h, no CYP expressed
[9] = spid AR_antagonist, sheet antagonist_fits
[10] = spid AR_antagonist, sheet antagonist_fits, 0 where win_model is Constant
[11] = sheet agonist_fits, maximum median response

Row | SMILES | max_med (maximum median response) [1] | hill_tp (Hill model top) [1] | max_med (maximum median response) [2, 9] | win_model (winning concentration-response model) [2, 9] | hill_gw (Hill model slope) [2, 10] | hill_tp (Hill model top) [2, 10] | AC50 ([3]; spid=Bgal) | hill_tp ([4]; sheet agonist_fits) | max_med [4, 11] | win_model ([4]; sheet agonist_fits) | AC50 ([8]; hill_ga, spid=No_RNA) | hill_gw ([4]; sheet agonist_fits) | also measured
1 | CCCSP(=O)(OCC)SCCC [Ethoprop] | 22.3553 | 18.1513 | 30.1172 | Hill | 1.091 | 36.6932 | > 99.9 µM |  |  |  |  |  | max_med [4]: -0.01755
2 | C[C@]12CC[C@@H]3c4ccc(O)cc4C[C@@H](CCCCCCCCC[S+]([O-])CCCC(F)(F)C(F)(F)F)[C@H]3[C@@H]1CC[C@@H]2O (stereo partly shown) [Fulvestrant] | 0.2489 | 0 | 30.2853 | Hill | 0.7802 | 36.6036 |  | 0 | 0.04086 | Constant |  |  | Agonist reference [5]: Inactive; OT 8 hr [6]: 0; OT 16 hr [6]: 0; AR2 agonist ([4]; 18 h): 0; UPitt agonist [7]: 0
3 | N#Cc1ccc(C(c2ccc(C#N)cc2)n2cncn2)cc1 [Letrozole] | 11.0349 | 0 | 39.7548 | Hill | 1.809 | 49.9358 | > 99.9 µM | 5.82 | 6.074 | Gain-Loss | 54.9 µM | 3.273 | 
4 | O=C1C[C@@H](c2ccc(O)cc2)Oc2cc(O)cc(O)c21 [Naringenin] | 0.3009 | 0 |  | Hill | 8 |  | > 99.9 µM | 0.1206 | 0.1409 | Gain-Loss | 57.7 µM | 8 | hill_tp (Hill model top) [2]: 38.8754; max_med (maximum median response) [2]: 37.0321; AC50 ([8]; hill_ga, spid=Bgal): 49.8 µM
5 | O=[N+]([O-])c1c(Cl)c(Cl)c(Cl)c(Cl)c1Cl [Pentachloronitrobenzene] | 37.6424 | 16.6244 | 40.8543 | Hill | 8 | 49.0252 | > 99.9 µM | 0.296 | 0.2467 | Gain-Loss |  | 5.807 | 
6 | CC(C)=CC1C(C(=O)OCN2C(=O)C3=C(CCCC3)C2=O)C1(C)C (stereo not shown) [Tetramethrin] | 11.4832 | 20.7059 | 7.623 | Hill | 3.974 | 4.695 |  | 0.4941 | 0.4102 | Hill |  | 4.525 | Agonist reference [5]: Inactive; OT 8 hr [6]: 1; OT 16 hr [6]: 1; AC50 ([8]; spid=Bgal, read-out: hill_ga (converted)): 43.1 µM; activity call in agonist mode ([4]; 128-chemical evaluation, 18 h, active = maximal median response >5*bmad): inactive; AR2 agonist ([4]; 18 h): 0; UPitt agonist [7]: 0
7 | CCCN(CCC)c1c([N+](=O)[O-])cc(C(F)(F)F)cc1[N+](=O)[O-] [Trifluralin] | 33.7321 | 18.5971 |  | Hill | 1.383 |  |  | 0.2593 | 0.1998 | Gain-Loss | 47.5 µM | 0.3 | hill_tp (Hill model top) [2]: 55.7657; max_med (maximum median response) [2]: 39.0604; AC50 ([8]; hill_ga, spid=Bgal): 52.2 µM; AC50 ([3]; spid=No_RNA): > 99.9 µM
